This is an account of results in PubChem BioAssay (NCI).

Test systems include HCC-2998 colon; SK-MEL-28 melanoma; SF-268 CNS; SK-MEL-5 melanoma; ACHN renal; RXF 393 renal; OVCAR-8 ovarian; IGROV1 ovarian; OVCAR-4 ovarian; 786-0 renal.
Common to all, as to experiment: NCI tumour cell line growth inhibition, 48 h

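Cells were grown in 96-well plates and exposed to each compound for 48 hours at five concentrations; endpoints were interpolated linearly between bracketing concentrations, or set to the highest concentration if not reached. Abbreviation: GI50, concentration required for 50% inhibition of growth. TGI: concentration producing complete growth inhibition.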

Turning to `Cc1nc([N+](=O)[O-])cn1CC(=N)N`, the TGI with HCC-2998 colon, in the assay on SK-MEL-28 melanoma, in the assay on SF-268 CNS, in the assay on SK-MEL-5 melanoma, in the assay on ACHN renal and with RXF 393 renal was > 100 µM throughout. Also, the TGI with OVCAR-8 ovarian, in the assay on IGROV1 ovarian, with OVCAR-4 ovarian and with 786-0 renal was > 100 µM in each case.

As for `N=C(N)c1ccc2nc(-c3cc(CC(=O)N[C@@H](CC(=O)O)C(=O)O)cc(-c4cc(S(N)(=O)=O)ccc4O)c3O)[nH]c2c1`, the GI50 with HCC-2998 colon, with SK-MEL-28 melanoma, in the assay on SF-268 CNS, with SK-MEL-5 melanoma, in the assay on ACHN renal and in the assay with RXF 393 renal was > 100 µM throughout. Moreover, the GI50 in the assay on OVCAR-8 ovarian, in the assay with IGROV1 ovarian, in the assay on OVCAR-4 ovarian and in the assay on 786-0 renal was > 100 µM each time. Besides, the TGI in the assay with HCC-2998 colon, in the assay on SK-MEL-28 melanoma, in the assay with SF-268 CNS, in the assay on SK-MEL-5 melanoma, in the assay on ACHN renal and in the assay with RXF 393 renal was > 100 µM throughout. Moreover, the TGI in the assay with OVCAR-8 ovarian, with IGROV1 ovarian, in the assay on OVCAR-4 ovarian and with 786-0 renal was > 100 µM each time.

With `O=C1NC(=O)C(c2cccc([N+](=O)[O-])c2)=C1Nc1cc(Cl)c(O)c(Cl)c1`, the GI50 with HCC-2998 colon is > 25 µM; with SK-MEL-28 melanoma it was > 25 µM; in the assay on SF-268 CNS, > 25 µM; with SK-MEL-5 melanoma, 24.4 µM; in the assay on ACHN renal, > 25 µM; in the assay with RXF 393 renal, > 21.7 µM. Moreover, the GI50 with OVCAR-8 ovarian is > 25 µM; in the assay with IGROV1 ovarian, > 25 µM; in the assay with OVCAR-4 ovarian it was > 25 µM; in the assay on 786-0 renal, > 23.3 µM. In addition, the TGI in the assay with HCC-2998 colon, in the assay with SK-MEL-28 melanoma, in the assay with SF-268 CNS, with SK-MEL-5 melanoma, with ACHN renal and with RXF 393 renal was > 25 µM each time. The TGI in the assay on OVCAR-8 ovarian, with IGROV1 ovarian, with OVCAR-4 ovarian and in the assay on 786-0 renal was > 25 µM each time.

`CC(C)N(C(=O)C12C3C4C1(I)C1C2C3(I)C41C(=O)N(C(C)C)C(C)C)C(C)C` (stereo not given): the TGI with HCC-2998 colon, in the assay with SK-MEL-28 melanoma, with SF-268 CNS, with SK-MEL-5 melanoma, in the assay on ACHN renal and in the assay on RXF 393 renal was > 100 µM throughout. Moreover, the TGI with OVCAR-8 ovarian is > 100 µM; with IGROV1 ovarian it was > 100 µM; with OVCAR-4 ovarian it was > 100 µM; in the assay with 786-0 renal it was > 64.4 µM.

`Cc1cc(C)c(NC(=O)c2sc3nc4c(cc3c2N)CN(Cc2ccccc2)CC4)c(C)c1`: the GI50 in the assay with HCC-2998 colon was 5.33 µM; with SK-MEL-28 melanoma it was 6.97 µM; with SF-268 CNS it was 6.93 µM; with SK-MEL-5 melanoma it was 1.47 µM; in the assay on ACHN renal it was 6.31 µM; with RXF 393 renal, 2.45 µM. Besides, the GI50 with OVCAR-8 ovarian is 4.72 µM; in the assay on IGROV1 ovarian, 6.54 µM; with OVCAR-4 ovarian, 6.72 µM; with 786-0 renal it was 3.48 µM. Also, the TGI with HCC-2998 colon was 38.4 µM; in the assay with SK-MEL-28 melanoma it was 40.4 µM; in the assay on SF-268 CNS it was 64.8 µM; with SK-MEL-5 melanoma, 11.5 µM; with ACHN renal, > 100 µM; in the assay on RXF 393 renal, 18.5 µM. In addition, the TGI with OVCAR-8 ovarian, in the assay with IGROV1 ovarian, in the assay with OVCAR-4 ovarian and in the assay with 786-0 renal was > 100 µM throughout.

Consider `COc1ccc(-c2ccc(-c3ccc(C(=N)N)s3)s2)cc1`, for which the GI50 in the assay with HCC-2998 colon is 0.273 µM; in the assay on SK-MEL-28 melanoma, 0.187 µM; in the assay on SF-268 CNS, 0.211 µM; in the assay with SK-MEL-5 melanoma, 1.21 µM; with ACHN renal, 0.19 µM; in the assay on RXF 393 renal, 1.26 µM. Besides, the GI50 in the assay with OVCAR-8 ovarian is 0.219 µM; in the assay with IGROV1 ovarian, 0.244 µM; in the assay with OVCAR-4 ovarian, 0.187 µM; in the assay with 786-0 renal it was 0.187 µM. The TGI was determined as 0.699 µM in the assay with HCC-2998 colon; 0.348 µM with SK-MEL-28 melanoma; 0.451 µM in the assay on SF-268 CNS; 2.87 µM in the assay with SK-MEL-5 melanoma; 0.359 µM in the assay on ACHN renal; 3.05 µM with RXF 393 renal. Besides, the TGI in the assay with OVCAR-8 ovarian was 0.5 µM; with IGROV1 ovarian it was 0.509 µM; with OVCAR-4 ovarian, 0.399 µM; in the assay with 786-0 renal, 0.378 µM.

Take `COC(=O)/C=C/c1c(CC=C(C)C)ncn1C`: the TGI is > 100 µM in the assay on HCC-2998 colon; > 100 µM in the assay on SK-MEL-28 melanoma; > 100 µM with SF-268 CNS; > 100 µM in the assay on SK-MEL-5 melanoma; > 100 µM in the assay on ACHN renal; > 87 µM in the assay on RXF 393 renal. Moreover, the TGI in the assay with OVCAR-8 ovarian, in the assay with IGROV1 ovarian, in the assay on OVCAR-4 ovarian and with 786-0 renal was > 100 µM throughout.

With `CSc1ccc2c(c1)C(=O)c1c-2n(CCCBr)c(=O)c2cc([N+](=O)[O-])ccc12`, the GI50 with HCC-2998 colon was 74.4 µM; with SK-MEL-28 melanoma, 51.8 µM; with SF-268 CNS, 7.42 µM; in the assay on SK-MEL-5 melanoma, 3 µM; in the assay on ACHN renal, 1.61 µM; in the assay with RXF 393 renal it was > 100 µM. Besides, the GI50 in the assay with OVCAR-8 ovarian was 27.6 µM; in the assay on IGROV1 ovarian, 12.1 µM; in the assay on OVCAR-4 ovarian it was > 100 µM; in the assay on 786-0 renal it was 2.45 µM. Also, the TGI with HCC-2998 colon was > 100 µM; in the assay with SK-MEL-28 melanoma, > 100 µM; in the assay with SF-268 CNS, > 100 µM; in the assay with SK-MEL-5 melanoma, 25.8 µM; with ACHN renal it was 8.4 µM; with RXF 393 renal, > 100 µM. For the same compound, the TGI in the assay on OVCAR-8 ovarian was > 100 µM; with IGROV1 ovarian, > 100 µM; in the assay on OVCAR-4 ovarian, > 100 µM; with 786-0 renal, 10.5 µM.
